IC50 data for 32 molecules are collected here from the Kinase Knowledgebase extract (Sharma et al. 2016).

The structures appear in SMILES notation. Bounds are passed on as bounds.

PIK3CA (human), sequence (P42336 whole entry, looked up): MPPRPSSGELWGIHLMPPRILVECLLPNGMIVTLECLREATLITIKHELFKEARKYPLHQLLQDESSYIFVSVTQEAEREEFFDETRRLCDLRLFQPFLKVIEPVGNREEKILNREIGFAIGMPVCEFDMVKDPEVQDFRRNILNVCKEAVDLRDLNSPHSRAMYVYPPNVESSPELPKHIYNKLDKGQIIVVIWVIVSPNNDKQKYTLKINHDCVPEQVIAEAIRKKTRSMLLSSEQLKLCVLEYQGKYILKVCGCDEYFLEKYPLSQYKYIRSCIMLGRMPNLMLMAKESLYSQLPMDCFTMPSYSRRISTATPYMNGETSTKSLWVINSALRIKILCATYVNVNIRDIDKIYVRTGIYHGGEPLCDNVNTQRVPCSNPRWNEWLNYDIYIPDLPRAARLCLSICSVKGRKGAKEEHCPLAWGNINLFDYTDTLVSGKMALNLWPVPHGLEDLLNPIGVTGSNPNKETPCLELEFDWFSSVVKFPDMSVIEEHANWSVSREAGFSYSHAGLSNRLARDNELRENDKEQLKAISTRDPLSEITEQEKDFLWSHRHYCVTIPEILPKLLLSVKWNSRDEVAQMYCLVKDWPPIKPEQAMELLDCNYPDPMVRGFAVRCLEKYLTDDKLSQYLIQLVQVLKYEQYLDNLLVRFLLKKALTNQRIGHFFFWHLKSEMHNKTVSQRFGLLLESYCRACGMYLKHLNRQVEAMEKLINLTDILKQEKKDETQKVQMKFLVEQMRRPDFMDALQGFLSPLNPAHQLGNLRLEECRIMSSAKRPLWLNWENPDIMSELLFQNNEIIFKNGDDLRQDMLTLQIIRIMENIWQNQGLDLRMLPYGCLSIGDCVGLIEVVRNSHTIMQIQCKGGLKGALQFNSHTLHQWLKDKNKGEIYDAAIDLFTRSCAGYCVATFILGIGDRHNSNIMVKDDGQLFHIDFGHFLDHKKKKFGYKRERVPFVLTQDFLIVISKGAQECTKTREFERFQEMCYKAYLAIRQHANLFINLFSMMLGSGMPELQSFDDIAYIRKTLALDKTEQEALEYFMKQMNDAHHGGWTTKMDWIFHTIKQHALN

This assay concerns the target PIK3CA (human) (UniProt P42336). The assay can be described thus: Assessment of PIK3CA Kinase Activity.
With `CC(=O)Nc1ccc(-c2ccc3nc(NC(C)=O)sc3n2)cc1`, the IC50 fell in the range of 100 to 1000 nM.

For `CNC(=O)c1ccc(-c2ccc3nc(NC(C)=O)sc3n2)cn1`, the IC50 is less than 100 nM. For `CC(=O)Nc1nc2ccc(-c3ccc4[nH]ccc4c3)cc2s1`, the IC50 fell in the range of 100 to 1000 nM. Turning to `CC(=O)Nc1nc2ccc(-c3cnc(N)cn3)cc2s1`, the concentration for half-maximal inhibition (IC50) is less than 100 nM. For `CC(=O)Nc1nc2ccc(-c3ccc(-c4nnc[nH]4)cc3)nc2s1` the value was less than 100 nM. `CC(=O)Nc1nc2ccc(-c3cnc4cc[nH]c4c3)nc2s1` showed an IC50 of less than 100 nM. Molecule `CC(=O)Nc1nc2ccc(-c3ccccc3N)nc2s1` yielded an IC50 of 100 to 1000 nM. `CC(=O)Nc1nc2ccc(-c3ccc4[nH]ncc4c3)nc2s1` came in with an IC50 of less than 100 nM. `CONC(=O)c1cccc(-c2ccc3nc(NC(C)=O)sc3n2)c1` showed an IC50 of less than 100 nM.

`CS(=O)(=O)Nc1cc(-c2ccc3nc(NC(=O)C4CC4)sc3n2)cnc1Cl` registered an IC50 of less than 100 nM. For `CC(=O)Nc1nc2cnc(-c3cnc(N)c(C(F)(F)F)c3)nc2s1` the value was less than 100 nM. The molecule `CNC(=O)c1cccc(-c2ccc3nc(NC(C)=O)sc3c2)c1` showed an IC50 of 100 to 1000 nM. Turning to `CC(=O)Nc1nc2ccc(-c3ccc4nccn4c3)nc2s1`, the IC50 is less than 100 nM. For `CC(=O)Nc1nc2ccc(-c3cnc4[nH]ccc4c3)nc2s1` the value was less than 100 nM; for `CC(=O)Nc1nc2cnc(-c3cnc(Cl)c(NS(C)(=O)=O)c3)nc2s1`, less than 100 nM; for `CC(=O)Nc1nc2cnc(-c3cnc(Cl)c(N)c3)nc2s1`, 100 to 1000 nM.

Molecule `CNC(=O)c1ccc(-c2ccc3nc(NC(C)=O)sc3n2)cc1` displayed an IC50 of less than 100 nM.

Take `CC(=O)Nc1nc2ccc(-c3ccc(N)cc3)cc2s1`: the half-inhibitory concentration (IC50) was 100 to 1000 nM. To `CONC(=O)c1ccc(-c2ccc3nc(NC(C)=O)sc3n2)cc1` belongs less than 100 nM. `CC(=O)Nc1nc2ccc(-c3cnc(Cl)c(NS(=O)(=O)C4CC4)c3)nc2s1` displayed a half-inhibitory concentration (IC50) of 100 to 1000 nM. To `CC(=O)Nc1nc2ccc(-c3cnc(Cl)c(NS(C)(=O)=O)c3)nc2s1` belongs less than 100 nM. To `CC(=O)Nc1nc2ccc(-c3ccncc3)nc2s1` belongs 100 to 1000 nM.

The molecule `CC(=O)Nc1nc2ccc(-c3ccc4[nH]cc(C(N)=O)c4c3)cc2s1` had an IC50 of 100 to 1000 nM. In turn, `CC(=O)Nc1nc2ccc(-c3ccc(C#N)nc3)nc2s1` registered an IC50 of 100 to 1000 nM. To `CC(=O)Nc1nc2cnc(-c3ccc(N)nc3)nc2s1` belongs 100 to 1000 nM; to `CC(=O)Nc1nc2ccc(-c3ccc4[nH]ccc4c3)nc2s1`, 100 to 1000 nM; to `CC(=O)Nc1ccc(-c2ccc3nc(NC(C)=O)sc3n2)cn1`, 100 to 1000 nM.

On to `CC(=O)Nc1nc2ccc(-c3ccc4c(c3)CC(=O)N4)nc2s1`, for which the IC50 was less than 100 nM.

Regarding `CC(=O)Nc1nc2ccc(-c3cnc(Cl)c(NS(C)(=O)=O)c3)cc2s1`, the IC50 is less than 100 nM.

In the case of `CC(=O)Nc1nc2ccc(-c3cnc(Cl)c(NS(=O)(=O)c4ccccc4)c3)nc2s1`, the IC50 is less than 100 nM.

With `CCS(=O)(=O)Nc1cc(-c2ccc3nc(NC(C)=O)sc3n2)cnc1Cl`, the IC50 was less than 100 nM.

For the molecule `CC(=O)Nc1nc2ccc(-c3ccc4[nH]cc(C=O)c4c3)cc2s1`, the IC50 was less than 100 nM.

In general, IC50 refers to the concentration that gives 50% inhibition. A higher IC50 goes with lower potency.
